From patent US20170291890A1 (Epizyme, Inc., priority 2014, published 2017) come the findings set out here.

Like-named read-outs stand apart in the source and are kept apart here. A value given as a limit tells only on which side of the number the result lay.

One experiment has as its target T1, KDM4C (Homo sapiens, UniProt Q9H3R0).
T1 construct: N-terminal GST-tagged KDM4C^2-372 was purchased from BPS Biosciences; GST (N); purchased BPS Biosciences
T1 sequence (Q9H3R0 2-372): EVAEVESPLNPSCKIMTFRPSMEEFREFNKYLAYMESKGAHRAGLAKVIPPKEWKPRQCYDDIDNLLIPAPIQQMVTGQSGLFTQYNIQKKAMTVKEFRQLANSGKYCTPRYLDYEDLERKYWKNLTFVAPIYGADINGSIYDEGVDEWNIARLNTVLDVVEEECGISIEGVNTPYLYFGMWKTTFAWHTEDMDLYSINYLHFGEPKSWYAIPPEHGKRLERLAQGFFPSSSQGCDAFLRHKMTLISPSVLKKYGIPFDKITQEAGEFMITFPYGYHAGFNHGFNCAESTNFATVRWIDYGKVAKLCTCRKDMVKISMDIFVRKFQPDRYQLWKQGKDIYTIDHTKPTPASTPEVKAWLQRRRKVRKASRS
The experiment is described as follows: KDM4C Assay (SAMDI mass spectrometry demethylase assay). In kind it is biochemical. As to conditions: N-terminal GST-tagged KDM4C 2-372, read-out: 4C IC50. The protocol: (§1) N-terminal GST-tagged KDM4C^2-372 was purchased from BPS Biosciences. Peptides were synthesized by BioPeptide and all other reagents were purchased from Sigma-Aldrich at the highest level of purity possible. Assays were performed in a 50 μL volume in 384-well V-bottom polypropylene microplates (Greiner) at 25° C. Optimized 1× assay buffer was 50 mM HEPES (pH=8.0), 100 μM sodium ascorbate, 20 mM NaCl, 10 μM ammonium iron sulfate, 1 mM tris(2-carboxyethyl)phosphine (TCEP), 0.002% Tween-20, and 0.005% BSG. For compound screening, 35 μL of KDM4C^2-372 (final concentration, f.c.=5 nM) was added using a Multidrop Combi and preincubated with 1 μL of test compound (f.c.=10 μM) for 30 minutes and subsequently 15 μL of peptide with the following sequence NH2-ARTKQTAR(Kme3)STGGKAPRKQLA(K-Ahx-Biotin)-amide (f.c.=500 nM) and 2-oxoglutarate (f.c.=15 μM) was added by Multidrop Combi to begin the reaction. Reactions proceeded for 150 minutes and were stopped by the addition of 5 μL of formic acid (f.c.=0.5%) using a Multidrop Combi and then analyzed by SAMDI Tech Inc.
(§2) SAMDI Tech analyzed all reactions using self-assembled monoloayer desorption/ionization technology as previously described (Gerard-Levin Z A, Scholle M D, Eisenberg A H, et al.: High-throughput screening of small molecule libraries using SAMDI mass spectrometry. ACS Comb Sci 2011; 13:347-350). Briefly, a 2 μL sample of the stopped demethylase reactions were transferred to a SAMDI array coated with 384 biotin-neutravidin spots using a 384-channel pipet station. The SAMDI arrays were incubated for 1 h in a humidified chamber, followed by washing of the surface with deionized ultra-filtered water (DIUF) and drying under nitrogen. A matrix of 30 mg/ml 2′,4′,6′-Trihydroxyacetophenone monohydrate (THAP) in acetone was applied using a TPP Mosquito 1.2 μL tip by dispensing 50 nL on each of the 384 spots on the array. SAMDI-MS was run using acquisition method ReflectorPositiveUTX. The % conversion of substrate to product was calculated using the AUC of the substrate and product peptide peaks.
(§3) An IC50 value was determined by contacting various concentrations of a test compound with one of the KDM4A, KDM4C or KDMSC enzyme constructs and plotting a dose-response curve which associates the amount of inhibition of the enzyme relative to the concentration of the test compound. From the curve, the IC50 value (which represents the concentration of the test compound necessary to inhibit maximal enzymatic activity by 50%) was determined. Additionally, the slope of the linear range of the plotted curve, which indicates the speed with which the curve rises between the minimum and maximum, was calculated.

The next experiment deals with T2, KDM5A (Homo sapiens, UniProt P29375).
T2 construct: C-terminal FLAG-tagged KDM5A^1-1090 was purchased from BPS Biosciences; FLAG (C); purchased BPS Biosciences
T2 sequence (P29375 1-1090): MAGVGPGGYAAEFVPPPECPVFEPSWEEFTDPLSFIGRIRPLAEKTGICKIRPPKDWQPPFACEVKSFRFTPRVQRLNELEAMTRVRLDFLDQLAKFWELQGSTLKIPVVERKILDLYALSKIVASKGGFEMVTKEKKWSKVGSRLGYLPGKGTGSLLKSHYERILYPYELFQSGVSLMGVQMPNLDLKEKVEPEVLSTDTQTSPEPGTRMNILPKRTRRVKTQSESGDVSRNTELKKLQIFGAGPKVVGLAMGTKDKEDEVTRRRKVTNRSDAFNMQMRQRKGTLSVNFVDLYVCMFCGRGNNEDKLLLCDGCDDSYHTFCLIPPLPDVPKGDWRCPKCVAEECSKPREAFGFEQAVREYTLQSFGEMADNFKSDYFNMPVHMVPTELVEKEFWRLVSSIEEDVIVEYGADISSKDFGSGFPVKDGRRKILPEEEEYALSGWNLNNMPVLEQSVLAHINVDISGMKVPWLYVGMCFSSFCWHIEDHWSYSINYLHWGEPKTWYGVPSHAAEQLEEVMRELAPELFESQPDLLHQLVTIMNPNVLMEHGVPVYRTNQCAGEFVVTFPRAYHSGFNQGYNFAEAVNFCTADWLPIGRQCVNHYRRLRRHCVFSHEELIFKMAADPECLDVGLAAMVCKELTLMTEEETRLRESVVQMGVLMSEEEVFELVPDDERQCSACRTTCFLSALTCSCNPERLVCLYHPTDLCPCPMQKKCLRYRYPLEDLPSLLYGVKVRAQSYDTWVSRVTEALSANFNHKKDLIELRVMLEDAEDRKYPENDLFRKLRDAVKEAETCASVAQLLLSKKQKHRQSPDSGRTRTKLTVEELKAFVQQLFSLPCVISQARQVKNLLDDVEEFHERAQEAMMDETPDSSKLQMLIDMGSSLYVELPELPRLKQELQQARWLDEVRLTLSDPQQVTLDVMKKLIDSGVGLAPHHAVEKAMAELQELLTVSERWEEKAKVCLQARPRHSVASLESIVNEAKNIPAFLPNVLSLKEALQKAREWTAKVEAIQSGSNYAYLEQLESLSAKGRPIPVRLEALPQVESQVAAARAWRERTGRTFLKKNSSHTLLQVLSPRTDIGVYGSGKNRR
Briefly: KDM5A Assay (SAMDI mass spectrometry demethylase assay). Type of experiment: biochemical. Conditions: C-terminal FLAG-tagged KDM5A 1-1090, read-out: 5A IC50. As for the experimental part:
as §1, with “C-terminal FLAG-tagged KDM5A^1-1090” for “N-terminal GST-tagged KDM4C^2-372”, “[…]” for “KDM4C^2-372”, “f.c.=20” for “f.c.=5”, “NH2-ART[Kme-3]QTARKSTGGKA[K-Ahx-Biot]-amide (f.c.=250” for “NH2-ARTKQTAR(Kme3)STGGKAPRKQLA(K-Ahx-Biotin)-amide (f.c.=500”
as §2, §3

For the compound `Cc1nn([C@@H]2CNC[C@@H]2C)cc1Nc1cnccc1C(=O)O` (single isomer, unassigned) [Compound 109], the IC50 on KDM4C (class symbols) is 1000 to 10000 nM; on KDM5A (class symbols), 100 to 1000 nM.

For the compound `Cc1nn([C@H]2CNC[C@H]2C)cc1Nc1cnccc1C(=O)O` (single isomer, unassigned) [Compound 110], the values for the IC50 at KDM4C (class symbols) and at KDM5A (class symbols) were 100 to 1000 nM and 1 to 100 nM, respectively.

As to `Cc1c(Nc2cnccc2C(=O)O)cnn1C1CCCNCC1` (single isomer, unassigned) [Compound 113], the IC50 at KDM4C (class symbols) is 100 to 1000 nM; on KDM5A (class symbols), 1000 to 10000 nM.

Turning to `Cc1c(Nc2cnccc2C(=O)O)cnn1C1CCCN(C2CCC2)CC1` (single isomer, unassigned) [Compound 117], the half-maximal inhibitory concentration (IC50) fell in the range of 100 to 1000 nM on KDM4C (class symbols) and 1000 to 10000 nM on KDM5A (class symbols).

Take `Cc1nn(C2CCCN(C3CCC3)CC2)cc1Nc1cnccc1C(=O)O` (single isomer, unassigned) [Compound 118]: the IC50 at KDM4C (class symbols) lay in the range of 1000 to 10000 nM; on KDM5A (class symbols), 100 to 1000 nM.

Turning to `Cc1c(Nc2cnccc2C(=O)O)cnn1C1CCCN(C2CCC2)CC1` (single isomer, unassigned) [Compound 119], the IC50 at KDM4C (class symbols) lay in the range of 100 to 1000 nM; on KDM5A (class symbols), 1000 to 10000 nM.

In the case of `Cc1nn(C2CCCN(C3CCC3)CC2)cc1Nc1cnccc1C(=O)O` (single isomer, unassigned) [Compound 120], the IC50 at KDM4C (class symbols) and at KDM5A (class symbols) was 100 to 1000 nM each time.

As to `Cc1nn(C2CCN(c3ccccc3)CC2)cc1Nc1cnccc1C(=O)O` [Compound 105, 3-(3-methyl-1-(1-phenylpiperidin-4-yl)-1H-pyrazol-4-ylamino) isonicotinic acid], the IC50 on KDM4C (class symbols) is 100 to 1000 nM; at KDM5A (class symbols), 1 to 100 nM.

In the case of `Cc1c(Nc2cnccc2C(=O)O)cnn1C1CCN(c2ccccc2)CC1` [Compound 106, 3-(5-methyl-1-(1-phenylpiperidin-4-yl)-1H-pyrazol-4-ylamino)isonicotinic acid], the results for the IC50 at KDM4C (class symbols) and at KDM5A (class symbols) were 1 to 100 nM and 1000 to 10000 nM, respectively.

With `Cc1c(Nc2cnccc2C(=O)O)cnn1CCN(C)C` [Compound 108], the IC50 at KDM4C (class symbols) and at KDM5A (class symbols) was 1000 to 10000 nM each time.

Consider `Cc1nn([C@H]2CCN(C)C2)cc1Nc1cnccc1C(=O)NCCO` [Compound 121, (S)—N-(2-hydroxyethyl)-3-((3-methyl-1-(1-methylpyrrolidin-3-yl)-1H-pyrazol-4-yl)amino)isonicotinamide], for which the IC50 at KDM4C (numeric bound) and at KDM5A (numeric bound) was above 100000 nM in each case.

As to `Cc1nn([C@@H]2CCN(C)C2)cc1Nc1cnccc1C(=O)NCCO` [Compound 122, (R)—N-(2-hydroxy-ethyl)-3-((3-methyl-1-(1-methylpyrrolidin-3-yl)-1H-pyrazol-4-yl)amino)isonicotin-amide], the IC50 on KDM4C (numeric bound) is above 100000 nM; on KDM5A (class symbols), 10000 to 100000 nM.

Regarding `CCc1c(Nc2cnccc2C(=O)O)cnn1C1CCN(C)CC1` [Compound 123, 3-(5-ethyl-1-(1-methylpiperidin-4-yl)-1H-pyrazol-4-ylamino) isonicotinic acid], the IC50 is 100 to 1000 nM on KDM4C (class symbols) and 1000 to 10000 nM at KDM5A (class symbols).

Take `CN1CCC(n2ncc(Nc3cnccc3C(=O)O)c2-c2ccccc2)C1` (stereo not shown) [Compound 124]: the IC50 on KDM4C (class symbols) and at KDM5A (class symbols) was 1000 to 10000 nM in each case.

Regarding `O=C(O)c1ccncc1Nc1cnn(C2CCN(Cc3ccccc3)C2)c1-c1ccccc1` (stereo not shown) [Compound 125, 3-(1-(1-benzylpyrrolidin-3-yl)-5-phenyl-1H-pyrazol-4-ylamino) isonicotinic acid], the IC50 at KDM4C (class symbols) and on KDM5A (class symbols) was 100 to 1000 nM each time.

As for `CN1CCC(n2cc(Nc3cnccc3C(=O)O)c(-c3ccccc3)n2)CC1` [Compound 127, 3-(1-(1-methylpiperidin-4-yl)-3-phenyl-1H-pyrazol-4-ylamino)isonicotinic acid], the IC50 on KDM4C (class symbols) and at KDM5A (class symbols) was 100 to 1000 nM in each case.

For the compound `Cc1cn(Cc2ccccc2)nc1Nc1cnccc1C(=O)O` [Compound 128, 3-(1-benzyl-4-methyl-1H-pyrazol-3-ylamino)isonicotinic acid], the concentration for half-maximal inhibition (IC50) at KDM4C (class symbols) and at KDM5A (class symbols) was 100 to 1000 nM throughout.

With `O=C(O)c1ccncc1Nc1nn(C2CCNCC2)cc1-c1ccccc1` [Compound 129, 3-(4-phenyl-1-(piperidin-4-yl)-1H-pyrazol-3-ylamino) isonicotinic acid], the IC50 on KDM4C (class symbols) lay in the range of 100 to 1000 nM; at KDM5A (class symbols), 1 to 100 nM.

`CN1CCC(n2cc(-c3ccccc3)c(Nc3cnccc3C(=O)O)n2)CC1` [Compound 130, 3-(1-(1-methylpiperidin-4-yl)-4-phenyl-1H-pyrazol-3-ylamino) isonicotinic acid]: the IC50 fell in the range of 100 to 1000 nM on KDM4C (class symbols) and 1 to 100 nM at KDM5A (class symbols).

Regarding `O=C(O)c1ccncc1Nc1c(-c2ccccc2)cnn1[C@H]1CNc2ccccc2C1` [Compound 137, (R)-3-(4-phenyl-1-(1,2,3,4-tetrahydroquinolin-3-yl)-1H-pyrazol-5-ylamino)isonicotinic acid], the IC50 on KDM4C (class symbols) and at KDM5A (class symbols) was 10000 to 100000 nM in each case.

What is called IC50 is the concentration at which inhibition is half-maximal.
